From EP2491043B1, “2,7-SUBSTITUTED THIENO[3,2-D]PYRIMIDINE COMPOUNDS AS PROTEIN KINASE INHIBITORS” (Korea Institute of Science and Technology, priority 2009, dated 2011)

Tests used:
[1] = test system: prostate cancer PC-3, breast cancer BT-474, colon LoVo, lung cancer NCI-H460, glioblastoma U-87 MG and pancreatic cancer BxPC-3 cells; settings: 25-100 mg/kg p.o., human tumor xenografts; cited from earlier work
[2] = test system: HT-29 human colon adenocarcinoma cells; experiment: Inhibition of proliferation of HT-29 cells (MTT assay); type: cell-based; settings: read-out: Inhibition activity against proliferation of HT-29 cells (GI50)
Experimental: HT-29 human colon adenocarcinoma cells were cultured in DMEM [10% FBS, 1% penicillin/streptomycin] at 37 °C in the presence of 5% CO2. The cultured HT-29 cells were harvested with 0.05% trypsin-0.02% EDTA and seeded in a 96-well plate at 5 x 10^3 cells per well.
3-(4,5-Dimethylthiazol-2-yl)-2,5-diphenyltetrazolium bromide (MTT) assay (CellTiter 96 Assay, Promega) was employed to measure cell viability. After adding 15 µL of a dye per well and culturing for 2 hours, the cells were treated with 100 µL of a stop solution and absorbance was measured 24 hours later. The test compound was treated a day after plating. The test compound had been sequentially diluted at 12 concentrations from a 10 mM stock solution using sterilized dimethylsulfoxide (DMSO) and treated with an amount of 0.5 µL. Absorbance at 590 nm was recorded using En Vision 2103, and GI50 value was calculated using GraphPad Prism 4.0 software.

FAK = target: T1, FAK (Homo sapiens, UniProt Q05397); experiment: Measurement of FAK kinase activity (ULight-LANCE assay); type: biochemical; settings: 10 µM ATP, 3 nM FAK, TR-FRET; read-out: FAK inhibition activity (IC50)
T1 construct: purchased Cell Signaling 7796
T1 sequence (Q05397 whole entry): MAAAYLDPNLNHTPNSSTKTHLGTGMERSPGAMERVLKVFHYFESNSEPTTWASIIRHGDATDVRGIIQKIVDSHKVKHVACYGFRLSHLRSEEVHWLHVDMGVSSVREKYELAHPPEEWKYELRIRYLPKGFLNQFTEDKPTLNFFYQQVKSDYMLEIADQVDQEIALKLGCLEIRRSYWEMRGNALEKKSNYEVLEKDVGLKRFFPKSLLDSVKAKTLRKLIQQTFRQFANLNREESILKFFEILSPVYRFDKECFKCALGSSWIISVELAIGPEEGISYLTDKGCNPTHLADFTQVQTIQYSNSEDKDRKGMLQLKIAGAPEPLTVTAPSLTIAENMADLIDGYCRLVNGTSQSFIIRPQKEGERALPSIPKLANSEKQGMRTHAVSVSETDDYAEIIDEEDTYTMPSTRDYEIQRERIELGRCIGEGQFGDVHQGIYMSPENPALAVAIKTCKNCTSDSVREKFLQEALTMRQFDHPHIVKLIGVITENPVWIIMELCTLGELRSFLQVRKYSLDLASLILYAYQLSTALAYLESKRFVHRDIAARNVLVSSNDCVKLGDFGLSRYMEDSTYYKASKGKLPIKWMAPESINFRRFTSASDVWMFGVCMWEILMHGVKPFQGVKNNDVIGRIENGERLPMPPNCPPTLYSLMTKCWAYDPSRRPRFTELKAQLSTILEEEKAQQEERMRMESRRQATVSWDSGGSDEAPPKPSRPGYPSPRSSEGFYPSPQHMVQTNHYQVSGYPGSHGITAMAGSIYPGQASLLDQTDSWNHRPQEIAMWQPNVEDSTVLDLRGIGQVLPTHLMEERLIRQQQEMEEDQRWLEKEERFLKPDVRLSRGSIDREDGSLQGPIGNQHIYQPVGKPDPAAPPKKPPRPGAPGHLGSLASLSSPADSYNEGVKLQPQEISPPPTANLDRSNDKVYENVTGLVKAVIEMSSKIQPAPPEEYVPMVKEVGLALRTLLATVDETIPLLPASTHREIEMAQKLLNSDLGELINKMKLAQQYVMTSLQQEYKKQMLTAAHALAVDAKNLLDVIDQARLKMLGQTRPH
Experimental: Full sequence FAK was purchased from Cell Signaling (Catalog No.: 7796). ULight-poly GT (PerkinElmer #TRF0100-D), Eu-anti-phospho-Tyr (PT66) ((PerkinElmer #AD0068) and Lance detection buffer (PerkinElmer #CR-97-100) were purchased from PerkinElmer. The kinase solution (50 mM Tris-HCl pH 7.5, 10 mM MgCl2, 1 mM EGTA, 2 mM DTT, 0.01% Tween-20) was adjusted to a final concentration of 3 nM by adding FAK diluted to 6 nM (2X) in white 384 OptiPlate, and added with an amount of 5 µL. 4X ULight-poly GT was adjusted to a final concentration of 100 nM. ATP (Sigma #A2383) was adjusted to a final concentration of 10 µM and in 2.5 µL aliquots. The test compound was sequentially diluted at 12 concentrations and treated with an amount of 0.5 µL. After shaking well and allowing to react at room temperature for 60 minutes, 5 µL of ethylenediaminetetraacetic acid (EDTA, final concentration 40 mM) diluted in Lance detection buffer (Lance detection buffer) was added and the mixture was left at room temperature for 5 minutes to stop the reaction. After adding 4X Eu-anti-phospho-Tyr (PT66) phosphorylated antibody diluted to a final concentration of 2 nM in detection buffer with an amount of 5 µL, and reaction was performed at room temperature for 60 minutes. After adjusting to detect time-resolved fluorescence energy transfer (TR-FRET) at excitation wavelength 320 nm and emission wavelength 665 nm, signals were detected using EnVision Multilabel Reader.

tumor = settings: concurrent administration of TAE226 and docetaxel, animal model, P values < 0.01; cited from earlier work

| Structure (SMILES) | inhibition of tumor growth or tumor degeneration [1] | GI50 [2] | IC50 (FAK) | tumor reduction (tumor) |
| --- | --- | --- | --- | --- |
| CN(c1ncccc1CNc1nc(Nc2ccc3c(c2)CC(=O)N3)ncc1C(F)(F)F)S(C)(=O)=O [PF-562271] | 42-90% | – | – | – |
| CCN1CCN(c2ccc(Nc3ncc4scc(-c5cccc(NS(C)(=O)=O)c5)c4n3)cn2)CC1 [Example 1, N-(3-(2-(6-(4-ethylpiperazin-1-yl)pyridin-3-ylamino)thieno[3,2-d]pyrimidin-7-yl)phenyl)methanesulfonamide] | – | < 1000 nM | < 500 nM | – |
| Cc1ccc(Nc2ncc3scc(-c4cccc(C(=O)NC5CC5)c4)c3n2)cn1 [Example 26, N-cyclopropyl-3-(2-(6-methylpyridin-3-ylamino)thieno[3,2-d]pyrimidin-7-yl)benzamide] | – | – | < 10000 nM | – |
| O=C(NC1CC1)c1cccc(-c2csc3cnc(Nc4ccc(N5CCOCC5)nc4)nc23)c1 [Example 27, N-cyclopropyl-3-(2-(6-morpholinopyridin-3-ylamino)thieno[3,2-d]pyrimidin-7-yl)benzamide] | – | < 1000 nM | < 500 nM | – |
| CCN1CCN(c2ccc(Nc3ncc4scc(-c5cnc6ccccc6c5)c4n3)cn2)CC1 [Example 30, N-(6-(4-ethylpiperazin-1-yl)pyridin-3-yl)-7-(quinolin-3-yl)thieno[3,2-d]pyrimidin-2-amine] | – | < 1000 nM | < 500 nM | – |
| CS(=O)(=O)Nc1cccc(-c2csc3cnc(Nc4ccc(N5CCOCC5)nc4)nc23)c1 [Example 12, N-(3-(2-(6-morpholinopyridin-3-ylamino)thieno[3,2-d]pyrimidin-7-yl)phenyl)methanesulfonamide] | – | < 1000 nM | < 1000 nM | – |
| CCN1CCN(c2ccc(Nc3ncc4scc(-c5cccc(C(=O)NC6CC6)c5)c4n3)cn2)CC1 [Example 25, N-cyclopropyl-3-(2-(6-(4-ethylpiperazin-1-yl)pyridin-3-ylamino)thieno[3,2-d]pyrimidin-7-yl)benzamide] | – | < 1000 nM | < 500 nM | – |
| CN(C)CCOc1ccc(Nc2ncc3scc(-c4cccc(NS(C)(=O)=O)c4)c3n2)cn1 [Example 13, N-(3-(2-(6-(2-(dimethylamino)ethoxy)pyridin-3-ylamino)thieno[3,2-d]pyrimidin-7-yl)phenyl)methanesulfonamide] | – | < 1000 nM | < 500 nM | – |
| CNC(=O)c1ccccc1Nc1nc(Nc2ccc(N3CCOCC3)cc2OC)ncc1Cl [TAE226] | – | – | – | 85-97% |
| Cc1ccc(Nc2ncc3scc(-c4cccc(NS(C)(=O)=O)c4)c3n2)cn1 [Example 11, N-(3-(2-(6-methylpyridin-3-ylamino)thieno[3,2-d]pyrimidin-7-yl)phenyl)methanesulfonamide] | – | < 1000 nM | < 1000 nM | – |
